Data on 14 compounds can be found in patent US7074789B2, “Kinase inhibitors” (Amgen Inc., priority 1999, dated 2006).

What all share (assay type): biochemical
The target in assay [1] is T1, AKT (Homo sapiens, UniProt Q9Y243).
T1 construct: Kinases are expressed as either kinase domains or full length constructs; made in house
Description: Kinase inhibition assay (33P transfer), AKT. The note with it: Table 2, class symbols A-E; read-out: AKT3-1. The method, boiled down: (§1)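 Kinase domain or full-length constructs, GST- or polyHis-tagged, expressed in E. coli or baculovirus-High Five cells, sometimes with regulatory polypeptides. Activity measured as 33PO4 transfer from ATP to plate-bound poly(Glu,Tyr) 4:1 or poly(Arg,Ser) 3:1; after incubation, plates washed with 0.5% phosphoric acid and counted by liquid scintillation.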

Assay [2] concerns the target T2, ErbB2 (Homo sapiens, UniProt P04626).
T2 construct: Kinases are expressed as either kinase domains or full length constructs; made in house
In words: Kinase inhibition assay (33P transfer), ErbB2. The note with it: read-out: ErbB2-2. The gist of the method:
(§2)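 Using immobilised substrate copolymers (poly(Glu,Tyr) 4:1; poly(Arg,Ser) 3:1) and [33P]ATP, purified fusion kinases were allowed to react; plates were then rinsed in 0.5% phosphoric acid and counted in a scintillation detector. Half-maximal inhibition of label transfer defines IC50.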

Assay [3] has as its target T3, Itk (Homo sapiens, UniProt Q08881).
T3 construct: Kinases are expressed as either kinase domains or full length constructs; made in house
T3 sequence (Q08881 1-620): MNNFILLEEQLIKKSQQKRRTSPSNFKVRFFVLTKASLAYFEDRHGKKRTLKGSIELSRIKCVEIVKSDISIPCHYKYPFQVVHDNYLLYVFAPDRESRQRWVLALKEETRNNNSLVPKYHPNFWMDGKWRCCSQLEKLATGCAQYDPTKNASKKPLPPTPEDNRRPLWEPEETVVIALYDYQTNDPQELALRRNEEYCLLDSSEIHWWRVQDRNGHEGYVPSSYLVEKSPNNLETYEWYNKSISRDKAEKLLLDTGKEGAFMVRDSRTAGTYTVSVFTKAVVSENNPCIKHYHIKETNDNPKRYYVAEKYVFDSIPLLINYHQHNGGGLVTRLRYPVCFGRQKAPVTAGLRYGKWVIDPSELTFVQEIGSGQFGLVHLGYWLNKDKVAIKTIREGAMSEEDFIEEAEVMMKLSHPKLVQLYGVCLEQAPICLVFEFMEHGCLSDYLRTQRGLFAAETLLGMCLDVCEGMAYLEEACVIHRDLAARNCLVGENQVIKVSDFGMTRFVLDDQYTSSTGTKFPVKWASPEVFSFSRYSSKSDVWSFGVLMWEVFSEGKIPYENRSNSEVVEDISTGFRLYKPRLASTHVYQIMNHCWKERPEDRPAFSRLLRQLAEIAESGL
Description: Kinase inhibition assay (33P transfer), Itk. The note with it: Table 3, class symbols; read-out: Itk-1. The method, boiled down:
as §2

Assay [4] concerns the target T4, Lck (Homo sapiens, UniProt P06239).
T4 construct: Kinases are expressed as either kinase domains or full length constructs; made in house
Description: Kinase inhibition assay (33P transfer), Lck. To be noted: Table 3, class symbols; read-out: Lck-1. The method, boiled down:
as §1

Assay [5] has as its target T5, Zap-70 (Homo sapiens, UniProt P43403).
T5 construct: Kinases are expressed as either kinase domains or full length constructs; made in house
T5 sequence (P43403 1-619): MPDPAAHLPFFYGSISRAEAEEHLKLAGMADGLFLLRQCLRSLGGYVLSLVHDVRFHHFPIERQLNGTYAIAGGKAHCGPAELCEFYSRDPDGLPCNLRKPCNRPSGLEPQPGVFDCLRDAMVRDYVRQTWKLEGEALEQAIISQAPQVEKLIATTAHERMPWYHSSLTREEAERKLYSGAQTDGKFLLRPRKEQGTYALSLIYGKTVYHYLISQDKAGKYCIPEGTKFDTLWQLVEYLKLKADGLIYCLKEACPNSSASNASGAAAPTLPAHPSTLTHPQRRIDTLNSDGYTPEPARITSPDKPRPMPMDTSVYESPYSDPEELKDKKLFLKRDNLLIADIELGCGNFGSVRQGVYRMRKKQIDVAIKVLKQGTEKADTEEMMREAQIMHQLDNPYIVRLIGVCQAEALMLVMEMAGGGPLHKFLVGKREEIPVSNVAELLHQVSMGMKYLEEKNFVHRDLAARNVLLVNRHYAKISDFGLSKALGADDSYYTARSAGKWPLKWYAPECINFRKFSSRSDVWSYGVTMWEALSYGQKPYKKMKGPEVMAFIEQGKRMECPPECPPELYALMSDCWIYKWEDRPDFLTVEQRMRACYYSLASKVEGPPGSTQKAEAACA
Description: Kinase inhibition assay (33P transfer), Zap-70. The note with it: Table 3, class symbols; read-out: Zap-1. The method, boiled down: as §1

Assay [6] has as its target T6, IGFR-1 (Homo sapiens, UniProt P08069).
T6 construct: Kinases are expressed as either kinase domains or full length constructs; made in house
Description: Kinase inhibition assay (33P transfer), IGFR-1. The note with it: Table 2, class symbols A-E.

The target of assay [7] is T7, EGFR (Homo sapiens, UniProt P00533).
T7 construct: Kinases are expressed as either kinase domains or full length constructs; made in house
Description: Kinase inhibition assay (33P transfer), EGFR. To be noted: Table 2, class symbols A-E; read-out: EGFR-1. The method, boiled down:
as §2

For assay [8], the target named is T8, PDGFRB (Homo sapiens, UniProt P09619).
T8 construct: Kinases are expressed as either kinase domains or full length constructs; made in house
In words: Kinase inhibition assay (33P transfer), PDGFRB. The note with it: read-out: PDGFRB-1.

In assay [9] the target is T9, c-Met (Homo sapiens, UniProt P08581).
T9 construct: Kinases are expressed as either kinase domains or full length constructs; made in house
T9 sequence (P08581 25-1390): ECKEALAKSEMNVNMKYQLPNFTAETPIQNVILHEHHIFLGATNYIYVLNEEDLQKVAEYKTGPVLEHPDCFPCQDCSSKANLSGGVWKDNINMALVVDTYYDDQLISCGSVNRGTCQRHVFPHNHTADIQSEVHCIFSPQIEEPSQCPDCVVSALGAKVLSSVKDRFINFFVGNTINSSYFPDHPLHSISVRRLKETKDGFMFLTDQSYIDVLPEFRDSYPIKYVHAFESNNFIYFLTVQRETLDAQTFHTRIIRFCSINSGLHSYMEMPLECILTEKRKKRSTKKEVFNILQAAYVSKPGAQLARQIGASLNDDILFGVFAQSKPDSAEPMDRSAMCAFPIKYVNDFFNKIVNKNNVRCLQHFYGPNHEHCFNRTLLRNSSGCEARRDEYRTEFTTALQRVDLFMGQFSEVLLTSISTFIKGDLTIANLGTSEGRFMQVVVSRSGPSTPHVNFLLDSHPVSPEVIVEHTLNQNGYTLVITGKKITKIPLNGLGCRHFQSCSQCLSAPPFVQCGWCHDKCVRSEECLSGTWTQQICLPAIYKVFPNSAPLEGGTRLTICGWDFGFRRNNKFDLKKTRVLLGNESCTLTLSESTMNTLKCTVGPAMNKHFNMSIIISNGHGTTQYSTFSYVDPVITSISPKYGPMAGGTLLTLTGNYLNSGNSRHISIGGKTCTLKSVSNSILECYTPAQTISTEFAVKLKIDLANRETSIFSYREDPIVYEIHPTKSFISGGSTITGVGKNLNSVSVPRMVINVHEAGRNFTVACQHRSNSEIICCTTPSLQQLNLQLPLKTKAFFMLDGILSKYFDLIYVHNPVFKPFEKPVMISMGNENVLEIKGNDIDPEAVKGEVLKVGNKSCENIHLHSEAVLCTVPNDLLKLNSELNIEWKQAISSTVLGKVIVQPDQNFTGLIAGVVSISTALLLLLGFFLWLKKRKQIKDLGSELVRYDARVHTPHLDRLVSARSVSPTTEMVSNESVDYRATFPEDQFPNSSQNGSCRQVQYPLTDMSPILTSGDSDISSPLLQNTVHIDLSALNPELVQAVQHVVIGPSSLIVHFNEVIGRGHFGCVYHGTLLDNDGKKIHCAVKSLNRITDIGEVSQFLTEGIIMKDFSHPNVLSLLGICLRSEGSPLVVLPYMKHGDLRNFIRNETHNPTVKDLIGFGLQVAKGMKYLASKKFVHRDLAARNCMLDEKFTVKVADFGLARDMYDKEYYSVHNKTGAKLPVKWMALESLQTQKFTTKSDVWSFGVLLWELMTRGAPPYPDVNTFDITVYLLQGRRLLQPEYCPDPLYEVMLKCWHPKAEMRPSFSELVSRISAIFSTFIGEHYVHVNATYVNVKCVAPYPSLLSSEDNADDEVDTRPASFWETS
Description: Kinase inhibition assay (33P transfer), c-Met. To be noted: Table 2, class symbols A-E; read-out: Met-1. The gist of the method: as §2

The target of assay [10] is T10, Kdr (Homo sapiens, UniProt P35968).
T10 construct: Kinases are expressed as either kinase domains or full length constructs; made in house
T10 sequence (P35968 20-1356, species assumed): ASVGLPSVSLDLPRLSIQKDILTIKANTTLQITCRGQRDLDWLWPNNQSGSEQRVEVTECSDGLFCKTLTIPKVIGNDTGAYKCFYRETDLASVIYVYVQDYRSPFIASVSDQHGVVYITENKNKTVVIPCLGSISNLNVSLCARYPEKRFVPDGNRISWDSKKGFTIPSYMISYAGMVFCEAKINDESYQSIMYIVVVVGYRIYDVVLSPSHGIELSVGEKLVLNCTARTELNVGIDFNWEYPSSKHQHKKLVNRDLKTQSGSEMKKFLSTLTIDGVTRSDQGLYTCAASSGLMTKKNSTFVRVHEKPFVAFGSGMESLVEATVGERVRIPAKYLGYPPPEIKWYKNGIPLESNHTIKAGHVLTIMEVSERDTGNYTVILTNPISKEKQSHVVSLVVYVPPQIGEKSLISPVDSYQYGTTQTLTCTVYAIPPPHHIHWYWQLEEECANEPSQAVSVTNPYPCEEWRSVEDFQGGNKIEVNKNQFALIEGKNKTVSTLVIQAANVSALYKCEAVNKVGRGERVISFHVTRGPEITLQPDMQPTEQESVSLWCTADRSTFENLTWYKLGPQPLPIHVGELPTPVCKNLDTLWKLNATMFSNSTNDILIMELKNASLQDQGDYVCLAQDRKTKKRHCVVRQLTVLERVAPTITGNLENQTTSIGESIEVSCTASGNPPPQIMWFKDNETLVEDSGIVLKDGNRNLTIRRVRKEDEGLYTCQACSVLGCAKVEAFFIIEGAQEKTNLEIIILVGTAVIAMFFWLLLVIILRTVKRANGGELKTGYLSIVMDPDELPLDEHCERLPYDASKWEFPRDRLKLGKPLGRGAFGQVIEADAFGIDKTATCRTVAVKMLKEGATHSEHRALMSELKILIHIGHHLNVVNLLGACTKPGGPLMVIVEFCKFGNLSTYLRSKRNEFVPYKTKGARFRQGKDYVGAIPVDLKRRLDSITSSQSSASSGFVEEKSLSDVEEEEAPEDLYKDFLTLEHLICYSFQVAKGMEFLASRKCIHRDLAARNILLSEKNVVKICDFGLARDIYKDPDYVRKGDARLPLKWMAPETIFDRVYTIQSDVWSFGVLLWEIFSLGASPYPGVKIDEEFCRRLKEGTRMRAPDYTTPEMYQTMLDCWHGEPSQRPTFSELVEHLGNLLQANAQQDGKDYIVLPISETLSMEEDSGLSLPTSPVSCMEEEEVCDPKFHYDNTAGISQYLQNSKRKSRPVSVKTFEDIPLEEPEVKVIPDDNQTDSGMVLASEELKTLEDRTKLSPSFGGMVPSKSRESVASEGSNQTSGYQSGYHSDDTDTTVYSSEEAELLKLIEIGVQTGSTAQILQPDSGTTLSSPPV
Description: Kinase inhibition assay (33P transfer), Kdr. The note with it: Table 3, class symbols; read-out: KDR-1. The gist of the method: as §1

T6 sequence (P08069 31-1367): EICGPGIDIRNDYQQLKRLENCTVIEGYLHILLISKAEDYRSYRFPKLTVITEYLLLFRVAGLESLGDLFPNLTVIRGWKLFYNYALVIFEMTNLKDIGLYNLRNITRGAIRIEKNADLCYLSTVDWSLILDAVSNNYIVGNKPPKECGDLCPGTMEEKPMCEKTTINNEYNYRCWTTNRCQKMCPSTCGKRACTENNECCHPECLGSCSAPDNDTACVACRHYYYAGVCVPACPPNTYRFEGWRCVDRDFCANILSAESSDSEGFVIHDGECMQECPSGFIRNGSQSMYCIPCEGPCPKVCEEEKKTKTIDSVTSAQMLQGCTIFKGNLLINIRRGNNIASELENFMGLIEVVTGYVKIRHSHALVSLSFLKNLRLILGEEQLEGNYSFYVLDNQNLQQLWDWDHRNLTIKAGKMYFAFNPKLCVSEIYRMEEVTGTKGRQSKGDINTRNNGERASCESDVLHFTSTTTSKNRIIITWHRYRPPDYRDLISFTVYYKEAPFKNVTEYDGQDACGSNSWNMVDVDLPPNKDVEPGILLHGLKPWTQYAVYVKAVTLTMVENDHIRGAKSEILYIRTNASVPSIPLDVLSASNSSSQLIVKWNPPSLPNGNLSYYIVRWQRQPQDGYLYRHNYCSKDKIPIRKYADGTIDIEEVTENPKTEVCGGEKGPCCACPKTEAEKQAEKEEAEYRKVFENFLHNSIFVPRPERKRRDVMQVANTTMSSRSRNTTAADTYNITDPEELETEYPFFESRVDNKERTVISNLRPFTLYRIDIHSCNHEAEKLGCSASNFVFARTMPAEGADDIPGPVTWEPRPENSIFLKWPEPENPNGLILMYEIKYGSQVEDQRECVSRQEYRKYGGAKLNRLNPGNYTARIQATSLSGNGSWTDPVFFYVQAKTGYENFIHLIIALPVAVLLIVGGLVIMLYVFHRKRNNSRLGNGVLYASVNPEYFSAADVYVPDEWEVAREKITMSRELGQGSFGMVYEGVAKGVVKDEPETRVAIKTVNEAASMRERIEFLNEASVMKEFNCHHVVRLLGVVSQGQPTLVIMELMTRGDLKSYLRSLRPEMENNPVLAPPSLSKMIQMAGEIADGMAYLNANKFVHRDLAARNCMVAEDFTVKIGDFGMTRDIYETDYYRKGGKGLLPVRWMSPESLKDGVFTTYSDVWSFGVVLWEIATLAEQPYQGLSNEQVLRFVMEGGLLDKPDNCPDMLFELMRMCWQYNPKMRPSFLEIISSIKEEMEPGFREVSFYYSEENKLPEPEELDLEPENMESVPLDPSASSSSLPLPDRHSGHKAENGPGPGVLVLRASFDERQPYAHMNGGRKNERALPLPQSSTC
T4 sequence (P06239 whole entry, species assumed, the tested form may be a part): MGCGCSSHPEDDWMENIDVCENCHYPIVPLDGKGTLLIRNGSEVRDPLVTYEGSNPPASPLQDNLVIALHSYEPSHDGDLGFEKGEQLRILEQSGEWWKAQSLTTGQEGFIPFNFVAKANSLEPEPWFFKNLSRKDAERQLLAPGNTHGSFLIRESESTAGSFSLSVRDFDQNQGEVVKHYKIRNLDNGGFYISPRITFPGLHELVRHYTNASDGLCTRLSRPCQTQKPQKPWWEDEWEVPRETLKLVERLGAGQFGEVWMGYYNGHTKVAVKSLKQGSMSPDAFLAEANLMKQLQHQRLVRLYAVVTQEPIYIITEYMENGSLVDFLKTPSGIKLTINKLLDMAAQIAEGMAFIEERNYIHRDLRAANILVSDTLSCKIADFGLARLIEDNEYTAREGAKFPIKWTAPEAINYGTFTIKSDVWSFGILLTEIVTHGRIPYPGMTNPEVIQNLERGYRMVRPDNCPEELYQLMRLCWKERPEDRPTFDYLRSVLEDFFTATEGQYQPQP
T1 sequence (Q9Y243 whole entry, the tested form may be a part): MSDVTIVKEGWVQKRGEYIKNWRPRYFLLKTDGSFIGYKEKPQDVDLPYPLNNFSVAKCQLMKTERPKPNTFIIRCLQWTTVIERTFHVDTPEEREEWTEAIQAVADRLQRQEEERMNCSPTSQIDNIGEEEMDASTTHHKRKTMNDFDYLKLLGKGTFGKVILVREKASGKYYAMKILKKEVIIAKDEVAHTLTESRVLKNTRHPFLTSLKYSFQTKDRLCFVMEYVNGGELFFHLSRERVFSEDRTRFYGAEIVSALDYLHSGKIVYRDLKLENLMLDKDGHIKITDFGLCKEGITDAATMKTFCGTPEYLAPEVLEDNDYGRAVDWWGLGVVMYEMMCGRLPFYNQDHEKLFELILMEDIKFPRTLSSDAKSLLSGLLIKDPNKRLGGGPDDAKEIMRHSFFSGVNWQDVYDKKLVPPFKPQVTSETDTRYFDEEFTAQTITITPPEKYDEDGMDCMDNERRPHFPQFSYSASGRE

As for `CNS(=O)(=O)Cc1ccc(Nc2ncnc(Nc3cc(-c4ccco4)[nH]n3)n2)cc1` [Compound 888], the IC50 in assay [1] was 0.938 to 5.63 µM; in [2] it was 0.938 to 5.63 µM; in assay [3], below 0.938 µM; in assay [4], 5.63 to 8.21 µM; in assay [5] it was above 10.6 µM; in assay [6], below 0.938 µM. In addition, the IC50 in assay [7] is 0.938 to 5.63 µM; in [8], 0.938 to 5.63 µM; in [9], below 0.938 µM; in assay [10], below 0.938 µM.

On to `COc1ccc(CNc2ncnc(Nc3cc(-c4ccco4)n[nH]3)n2)cc1` [Compound 994], for which the IC50 in assay [1], in assay [2], in assay [3], in assay [4], in [5] and in assay [6] was above 12.4 µM in each case. Besides, the IC50 in assay [7], in [8], in assay [9] and in assay [10] was above 12.4 µM in each case.

Regarding `O=C(O)Cc1cccc(Nc2ncnc(-c3cccnc3NCc3ccccc3)n2)c1` [Compound 1099], the IC50 is above 10.9 µM in [1]; 0.97 to 5.82 µM in assay [2]; above 10.9 µM in assay [3]; 0.97 to 5.82 µM in [4]; above 10.9 µM in assay [5]; above 10.9 µM in [6]. For the same compound, the IC50 was below 0.97 µM in assay [7], below 0.97 µM in assay [8], 0.97 to 5.82 µM in assay [9] and below 0.97 µM in assay [10].

`COc1cc(Nc2ncnc(NC(=O)Cc3ccccc3)n2)cc(OC)c1OC` [Compound 679]: the IC50 in [1] is above 11.4 µM; in [2], 6.07 to 8.85 µM; in [3] it was above 11.4 µM; in assay [4], 1.01 to 6.07 µM; in assay [5] it was above 11.4 µM; in assay [6], above 11.4 µM. In addition, the IC50 in [7] was 1.01 to 6.07 µM; in assay [8], 8.85 to 11.4 µM; in assay [9], above 11.4 µM; in assay [10], 8.85 to 11.4 µM.

Turning to `Clc1cc(Nc2ncnc(Nc3ccc4c(cnn4Cc4ccccc4)c3)n2)cc(Cl)c1Cl` [Compound 872], the IC50 in [1] is 0.805 to 4.83 µM; in [2] it was 0.805 to 4.83 µM; in [3] it was 0.805 to 4.83 µM; in assay [4] it was above 9.06 µM; in assay [5], above 9.06 µM; in assay [6], 0.805 to 4.83 µM. For the same compound, the IC50 in assay [7], in assay [8], in assay [9] and in [10] was 0.805 to 4.83 µM throughout.

`COc1ccc(Nc2ncnc(N(C)c3cccc(C)c3)n2)cc1OC` [Compound 800]: the IC50 in assay [1] is above 12.8 µM; in assay [2], 1.14 to 6.83 µM; in [3], above 12.8 µM; in [4], 1.14 to 6.83 µM; in assay [5] it was above 12.8 µM; in assay [6], 9.96 to 12.8 µM. Also, the IC50 in assay [7] was below 1.14 µM; in [8], above 12.8 µM; in assay [9], 1.14 to 6.83 µM; in assay [10] it was 1.14 to 6.83 µM.

`COC(=O)c1ccc(-c2cc(Nc3ncnc(NCc4ccccc4OC)n3)[nH]n2)cc1` [Compound 815]: the IC50 in assay [1] was above 10.4 µM; in assay [2], 0.927 to 5.56 µM; in [3], above 10.4 µM; in [4], above 10.4 µM; in assay [5], above 10.4 µM; in assay [6], above 10.4 µM. For the same compound, the IC50 in assay [7] is above 10.4 µM; in assay [8], 0.927 to 5.56 µM; in [9], above 10.4 µM; in [10], 8.11 to 10.4 µM.

Consider `COc1cc(Nc2ncnc(-c3cccnc3NCc3cccc4ccccc34)n2)cc(OC)c1OC` [Compound 844], for which the IC50 in assay [1] was above 9.1 µM; in [2], 0.809 to 4.85 µM; in [3] it was above 9.1 µM; in assay [4], above 9.1 µM; in [5] it was above 9.1 µM; in assay [6], 4.85 to 7.08 µM. Moreover, the IC50 in assay [7] is above 9.1 µM; in assay [8], 0.809 to 4.85 µM; in assay [9] it was above 9.1 µM; in [10], below 0.809 µM.

Turning to `COC(=O)c1ccc(-c2cc(Nc3ncnc(Nc4cccc(Cc5nnn[nH]5)c4)n3)[nH]n2)cc1` [Compound 991], the IC50 in [1] was in the range of 5.11 to 7.46 µM; in assay [2], 0.852 to 5.11 µM; in assay [3], 5.11 to 7.46 µM; in assay [4], 5.11 to 7.46 µM; in [5], 7.46 to 9.59 µM; in assay [6] it was 0.852 to 5.11 µM. The IC50 was 0.852 to 5.11 µM in assay [7], 0.852 to 5.11 µM in assay [8], below 0.852 µM in assay [9] and 5.11 to 7.46 µM in assay [10].

`COc1ccc(Nc2ncnc(N(C)CC(O)c3ccccc3)n2)cc1OC` (centres unmarked) [Compound 868]: the IC50 in assay [1] is above 11.8 µM; in [2] it was above 11.8 µM; in assay [3], 1.05 to 6.29 µM; in assay [4], above 11.8 µM; in assay [5], above 11.8 µM; in assay [6], above 11.8 µM. In addition, the IC50 is 1.05 to 6.29 µM in [7], 1.05 to 6.29 µM in assay [8], above 11.8 µM in [9] and above 11.8 µM in assay [10].

As for `CCN(c1ncnc(Nc2cc(OC)c(OC)c(OC)c2)n1)c1cccc2ccccc12` [Compound 634], the IC50 is 8.11 to 10.4 µM in [1]; 0.927 to 5.56 µM in [2]; above 10.4 µM in assay [3]; 0.927 to 5.56 µM in assay [4]; above 10.4 µM in assay [5]; above 10.4 µM in assay [6]. Further, the IC50 in assay [7] was below 0.927 µM; in assay [8] it was 8.11 to 10.4 µM; in assay [9], 5.56 to 8.11 µM; in assay [10] it was below 0.927 µM.

Turning to `COc1cc(Nc2ncnc(Nc3cc(-c4ccco4)[nH]n3)n2)cc(C(F)(F)F)c1` [Compound 821], the IC50 in assay [1] was in the range of 5.75 to 8.39 µM; in [2] it was 0.958 to 5.75 µM; in assay [3] it was 0.958 to 5.75 µM; in [4] it was 0.958 to 5.75 µM; in [5], 0.958 to 5.75 µM; in assay [6], 0.958 to 5.75 µM. The IC50 in assay [7], in assay [8], in assay [9] and in assay [10] was 0.958 to 5.75 µM each time.

Take `COC(=O)c1ccc(-c2cc(Nc3ncnc(NCCc4c[nH]c5ccccc45)n3)[nH]n2)cc1` [Compound 806]: the IC50 is above 9.9 µM in assay [1]; 0.88 to 5.28 µM in [2]; 0.88 to 5.28 µM in assay [3]; 0.88 to 5.28 µM in assay [4]; above 9.9 µM in assay [5]; 0.88 to 5.28 µM in assay [6]. For the same compound, the IC50 was 0.88 to 5.28 µM in assay [7], above 9.9 µM in assay [8], 0.88 to 5.28 µM in [9] and 0.88 to 5.28 µM in assay [10].

On to `c1ccc(Cn2ncc3cc(Nc4ncnc(NCCN5CCCC5)n4)ccc32)cc1` [Compound 871], for which the IC50 was above 10.9 µM in assay [1]; above 10.9 µM in [2]; 5.79 to 8.44 µM in assay [3]; above 10.9 µM in [4]; above 10.9 µM in assay [5]; above 10.9 µM in assay [6]. Moreover, the IC50 is above 10.9 µM in [7], 8.44 to 10.9 µM in assay [8], above 10.9 µM in assay [9] and above 10.9 µM in assay [10].
